Results published in ChEMBL document CHEMBL1145574, “Carbonic anhydrase inhibitors: Inhibition of the new membrane-associated isoform XV with phenols” (Bioorg Med Chem Lett, 2008).

Assays:
[1] = biological target: Carbonic anhydrase 1 (Homo sapiens, UniProt P00915)
Description: Inhibition of human carbonic anhydrase 1 by stopped-flow CO2 hydrase assay

[2] = biological target: T1, Carbonic anhydrase 15 (Mus musculus, UniProt Q99N23)
T1 sequence (Q99N23 whole entry): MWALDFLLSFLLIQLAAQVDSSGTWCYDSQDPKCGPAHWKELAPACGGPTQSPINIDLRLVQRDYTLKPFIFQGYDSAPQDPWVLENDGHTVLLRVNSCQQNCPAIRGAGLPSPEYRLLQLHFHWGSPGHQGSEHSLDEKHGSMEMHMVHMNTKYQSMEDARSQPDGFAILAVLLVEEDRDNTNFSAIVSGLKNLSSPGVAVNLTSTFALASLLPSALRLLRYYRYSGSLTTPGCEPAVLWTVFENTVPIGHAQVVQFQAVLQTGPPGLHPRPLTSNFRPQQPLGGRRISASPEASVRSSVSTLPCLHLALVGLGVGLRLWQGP
Description: Inhibition of mouse recombinant carbonic anhydrase 15 by stopped-flow CO2 hydrase assay

[3] = biological target: Carbonic anhydrase 2 (Homo sapiens, UniProt P00918)
Description: Inhibition of human carbonic anhydrase 2 by stopped-flow CO2 hydrase assay

Sequence of Carbonic anhydrase 1 (P00915 whole entry): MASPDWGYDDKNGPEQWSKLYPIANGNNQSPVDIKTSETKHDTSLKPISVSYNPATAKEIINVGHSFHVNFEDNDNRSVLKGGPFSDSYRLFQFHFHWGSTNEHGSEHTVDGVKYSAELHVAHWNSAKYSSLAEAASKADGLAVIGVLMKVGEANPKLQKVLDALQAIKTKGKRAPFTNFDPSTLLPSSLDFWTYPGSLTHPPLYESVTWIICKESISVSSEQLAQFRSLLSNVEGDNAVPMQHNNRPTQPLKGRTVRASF

SMILES	Ki [1] [µM]	Ki [2] [µM]	Ki [3] [µM]
N#Cc1ccc(O)cc1 [4-CYANOPHENOL]	131	434	–
Oc1ccccc1O [CATECHOL]	4000	10.2	9.91
Nc1ccc(O)cc1 [4-AMINOPHENOL]	–	335	–
Oc1ccccc1 [PHENOL]	–	10.5	–
CC(=O)Nc1ccc(O)cc1 [ACETAMINOPHEN]	10	9.23	6.2

Continued, in another order:

Ki [1] [µM]	Ki [2] [µM]	SMILES	Ki [3] [µM]
795	385	Oc1cccc(O)c1 [RESORCINOL]	–
–	11.3	Oc1cc(F)cc(F)c1	–
–	2.33	Oc1c(I)cc(Cl)c2cccnc12 [CLIOQUINOL]	–
10.7	10.6	Oc1ccc(O)cc1 [HYDROQUINONE]	–
9.8	9.32	O=C(O)c1ccc(O)cc1 [PARABEN]	–
134	212	Oc1cc(F)ccc1F	870
